Earlier results in patent US20140315941A1, “METHOD OF REDUCING CNS AND GASTRO[…] AFFECTS ASSOCIATED WITH LONG-TERM, DEXTROMETHORPHAN/LOW-DOSE QUINIDINE COMBINATION THERAPY” (Avanir Pharmaceuticals, Inc., priority 2009, published 2014).

How the values were obtained:
[1] = tested on: pain threshold in CYP2D6 extensive and poor metabolizers; settings: extensive vs poor metabolizers
[2] = some patients with Huntington's disease; DM doses eight times the maximum antitussive dose
CYP2D6 = CYP2D6 (Homo sapiens, UniProt P10635); settings: in vitro
Sequence of CYP2D6 (P10635 whole entry): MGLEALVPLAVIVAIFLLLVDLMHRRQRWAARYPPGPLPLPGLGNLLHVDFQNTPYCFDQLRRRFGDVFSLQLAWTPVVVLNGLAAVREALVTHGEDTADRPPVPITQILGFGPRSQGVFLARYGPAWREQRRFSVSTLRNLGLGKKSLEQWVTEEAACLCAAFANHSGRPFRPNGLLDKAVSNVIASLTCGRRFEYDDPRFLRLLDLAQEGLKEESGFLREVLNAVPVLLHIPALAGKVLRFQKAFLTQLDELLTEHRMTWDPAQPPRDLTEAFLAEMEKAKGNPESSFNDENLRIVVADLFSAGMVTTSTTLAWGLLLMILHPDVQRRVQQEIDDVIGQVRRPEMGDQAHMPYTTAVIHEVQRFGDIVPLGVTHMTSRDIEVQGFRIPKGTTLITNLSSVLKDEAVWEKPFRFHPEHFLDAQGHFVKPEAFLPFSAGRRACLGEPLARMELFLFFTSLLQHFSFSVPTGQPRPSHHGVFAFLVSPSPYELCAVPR

SMILES	antinociceptive effects (increase of pain threshold) [1]	plasma concentrations [2]	inhibition of CYP2D6 activity (potency, words) (CYP2D6)
COc1ccc2c(c1)[C@]13CCCCC1[C@H](C2)N(C)CC3 (single isomer, unassigned; (+)) [DM, (+)-3-methoxy-N-methylmorphinan]	significant in poor metabolizers but not in extensive metabolizers	undetectable	
C=C[C@H]1C[N@@]2CC[C@H]1C[C@@H]2[C@@H](O)c1ccnc2ccc(OC)cc12 [Quinidine, quinidine]			one of the most potent
